Measurements: EPA's ToxValDB 9.5 (doi:10.2903/j.efsa.2009.296r)
Converted amounts (≈) assume the structure as drawn.

Tests used:
Oncorhynchus mykiss = details: chronic/long-term; duration: 28 days
Daphnia magna = details: chronic/long-term; duration: 21 days
[1] = reproductive; oral; feed; reproduction
Apis mellifera = details: acute, duration: 48 hours, mortality
Coturnix coturnix = details: oral
Anas platyrhynchos = details: oral
Salmo trutta ssp. fario = details: acute; duration: 96 hours; mortality
Oryctolagus sp. = details: developmental; development
Mus musculus = details: acute; oral; mortality

O=C1C2CC=CCC2C(=O)N1SC(Cl)(Cl)Cl (stereo not drawn) [Captan]
NOEC (Oncorhynchus mykiss): 0.199 mg/L
NOEC (Daphnia magna): 0.56 mg/L
LC50 (Tagia sp.; acute, duration: 14 days, mortality): > 519 mg/kg
NOEC (Tagia sp.; chronic/long-term, duration: 8 weeks, reproduction): 11.6 mg/kg
NOAEL [1]: 100 mg/kg-day
LC50 (Apis mellifera; dermal): > 200 µg/piece
LD50 (Apis mellifera; oral, unspecified): > 100 µg/piece
LC50 (Coturnix coturnix; acute, diet, mortality): > 800 mg/kg-day
LD50 (Coturnix coturnix; acute, mortality): > 2000 mg/kg
NOEC (Coturnix coturnix; reproduction developmental, no effects): 83.2 mg/kg-day
LD50 (Anas platyrhynchos; acute, unspecified, mortality): > 2000 mg/kg
NOEC (Anas platyrhynchos; reproductive, unspecified, no effects): 74.4 mg/kg-day
LC50 (Anas platyrhynchos; short-term, feed, mortality): > 1040 mg/kg-day
LD50 (Rattus norvegicus; acute, oral, mortality): > 2000 mg/kg
NOAEL (Rattus norvegicus; developmental, development): 10 mg/kg-day
LC50 (Salmo trutta ssp. fario): 0.098 mg/L (≈ 0.326 µM)
NOAEL (Oryctolagus sp.): 30 mg/kg-day
LD50 (Mus musculus): > 2000 mg/kg
